From ChEMBL document CHEMBL2073920 (Eur J Pharmacol, 1998)

Tests used:
[1] = molecular target: T1, ATP-dependent translocase ABCB1 (Homo sapiens, UniProt P08183); assay: TP_TRANSPORTER: inhibition of Rhodamine 123 transepithelial transport (basal to apical)(R123: 5 uM, Midazolam: 100 uM) in Caco-2 cells; assay type: functional, cell-based; conditions: caco-2, 100 µM
[2] = molecular target: T1, ATP-dependent translocase ABCB1; assay: TP_TRANSPORTER: transepithelial transport (basal to apical) in Caco-2 cells; assay type: functional, cell-based

T1 sequence (P08183 whole entry): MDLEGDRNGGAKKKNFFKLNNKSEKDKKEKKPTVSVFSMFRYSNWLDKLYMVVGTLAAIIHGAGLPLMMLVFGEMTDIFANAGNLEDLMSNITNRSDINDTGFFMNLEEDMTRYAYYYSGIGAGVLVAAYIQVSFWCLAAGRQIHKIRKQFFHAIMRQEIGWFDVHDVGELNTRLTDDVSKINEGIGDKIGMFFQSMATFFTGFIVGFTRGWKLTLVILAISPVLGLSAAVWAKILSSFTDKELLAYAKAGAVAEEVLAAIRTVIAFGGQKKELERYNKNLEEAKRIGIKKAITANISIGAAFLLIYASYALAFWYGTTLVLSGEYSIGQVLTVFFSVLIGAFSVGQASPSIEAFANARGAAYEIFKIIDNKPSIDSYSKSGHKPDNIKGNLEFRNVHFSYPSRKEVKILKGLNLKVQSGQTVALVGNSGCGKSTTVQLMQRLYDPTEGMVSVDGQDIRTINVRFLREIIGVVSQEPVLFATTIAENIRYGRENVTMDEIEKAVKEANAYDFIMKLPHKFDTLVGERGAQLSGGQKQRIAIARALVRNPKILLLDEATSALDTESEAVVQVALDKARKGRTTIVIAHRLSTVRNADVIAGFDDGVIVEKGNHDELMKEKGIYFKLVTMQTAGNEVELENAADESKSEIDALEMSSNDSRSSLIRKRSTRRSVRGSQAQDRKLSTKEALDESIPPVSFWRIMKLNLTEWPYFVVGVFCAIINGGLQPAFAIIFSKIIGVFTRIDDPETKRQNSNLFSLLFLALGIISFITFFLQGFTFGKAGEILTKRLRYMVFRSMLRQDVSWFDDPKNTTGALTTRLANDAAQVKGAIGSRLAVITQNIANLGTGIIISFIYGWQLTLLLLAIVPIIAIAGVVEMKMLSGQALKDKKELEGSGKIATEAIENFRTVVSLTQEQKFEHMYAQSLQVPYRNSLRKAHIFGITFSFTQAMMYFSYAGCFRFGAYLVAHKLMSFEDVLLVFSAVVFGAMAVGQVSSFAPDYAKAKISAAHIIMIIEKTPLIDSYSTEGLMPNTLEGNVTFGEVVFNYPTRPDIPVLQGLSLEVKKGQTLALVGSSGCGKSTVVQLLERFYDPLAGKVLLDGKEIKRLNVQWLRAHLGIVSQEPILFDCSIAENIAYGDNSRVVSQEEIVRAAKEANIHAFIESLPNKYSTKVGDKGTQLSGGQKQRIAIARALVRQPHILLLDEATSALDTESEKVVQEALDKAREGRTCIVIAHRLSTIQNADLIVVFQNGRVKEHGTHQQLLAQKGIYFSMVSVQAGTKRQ

Q: Which Activity [1] does the source give for `Cc1ncc2n1-c1ccc(Cl)cc1C(c1ccccc1F)=NC2` [MIDAZOLAM] here?
A: The Activity was “inhibitor [(at a rough estimate) 55 % of control]”.

Q: And the Activity [2]?
A: The Activity was “substrate [+]”.
